Measurements from ChEMBL document CHEMBL1201862, “PubChem BioAssay data set” (2004).
Values joined by “and” are separate entries in the source; they are usually repeats but may differ in a detail not shown here. Identical values can stand only once.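 Where inhibition never reached the appropriate level, the endpoint shown equals the highest concentration tested. Otherwise, values were interpolated linearly from a five-concentration, 48-hour dose response in 96-well plates. GI50 is the concentration that inhibits growth by half.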 Active and inactive are the calls of the source. Cut-off read from the data, not from the text of the source: active = GI50 up to about 1.1 µM and inactive = higher.

How the values were obtained:
Assay in all cases: NCI anticancer screen, dose series, 48 h
NCI-H226 = tested on: NCI-H226
HT-29 = tested on: HT-29
COLO 205 = tested on: COLO 205
OVCAR-5 = tested on: OVCAR-5
UACC-257 = tested on: UACC-257
SK-MEL-28 = tested on: SK-MEL-28
EKVX = tested on: EKVX
M14 = tested on: M14
RPMI-8226 = tested on: RPMI-8226
SW-620 = tested on: SW-620
NCI/ADR-RES = tested on: NCI/ADR-RES
SF-539 = tested on: SF-539
UACC-62 = tested on: UACC-62
HCT-116 = tested on: HCT-116
UO-31 = tested on: UO-31
SF-268 = tested on: SF-268
HOP-62 = tested on: HOP-62
HCT-15 = tested on: HCT-15
MDA-MB-231 = tested on: MDA-MB-231
OVCAR-8 = tested on: OVCAR-8

Measured: GI50

COc1ccc(/C=C/c2ccnc3ccccc23)cc1
active: UO-31 0.021 µM
inactive: NCI-H226 21.9 µM | HT-29 10.4 µM | COLO 205 16.8 µM | OVCAR-5 21.4 µM | UACC-257 15.3 µM | SK-MEL-28 14.5 µM | EKVX 13.1 µM | M14 17.3 µM | RPMI-8226 10.7 µM | SW-620 17.7 µM | NCI/ADR-RES 14.2 µM | SF-539 21.8 µM | UACC-62 15.7 µM | HCT-116 15.7 µM | SF-268 15.2 µM | HOP-62 20.5 µM
18.1 µM: HCT-15

Cc1ccc(Nc2nc(=O)c3c([nH]c4ccccc43)s2)cc1
inactive: HT-29 10.8 µM | COLO 205 10.9 µM | UACC-257 17.1 µM | SK-MEL-28 21.2 µM | EKVX 27.8 µM | M14 6.59 µM | RPMI-8226 4.21 µM | SW-620 10.8 µM | NCI/ADR-RES 14.2 µM | SF-539 15.7 µM | UACC-62 3.84 µM | MDA-MB-231 17.1 µM | OVCAR-8 15.4 µM | UO-31 2.9 µM | SF-268 16.7 µM | HOP-62 10.2 µM
7.55 µM: HCT-15

COc1ccc(-n2c(CCCC(=O)O)nc3c2C(=O)c2ccccc2C3=O)cc1
44.5 µM: HCT-15
inactive: COLO 205 37.1 µM | OVCAR-5 > 100 µM | UACC-257 27.8 µM | SK-MEL-28 > 100 µM | EKVX 60.7 µM | M14 15.5 µM | RPMI-8226 36.3 µM | SW-620 56.9 µM | NCI/ADR-RES > 100 µM | SF-539 > 100 µM | UACC-62 23.4 µM | MDA-MB-231 63.5 µM | HCT-116 36.6 µM | OVCAR-8 51.3 µM | UO-31 > 100 µM | SF-268 46.7 µM

CO/C(=N\N=C\c1ccc(Cl)c(Cl)c1)c1ccncc1
> 10 µM: HCT-15
inactive: NCI-H226 > 10 µM | COLO 205 > 10 µM | OVCAR-5 > 10 µM | SK-MEL-28 > 10 µM | M14 > 10 µM | RPMI-8226 > 10 µM | SW-620 > 10 µM | NCI/ADR-RES > 10 µM | SF-539 > 10 µM | HCT-116 > 10 µM | OVCAR-8 > 10 µM | UO-31 > 10 µM | SF-268 > 10 µM | HOP-62 > 10 µM

CCCCCCOC(=O)/C=C/[C@]1(CO)C/C(=C/CC(C(C)C)C(C)C)C(=O)O1
inactive: NCI-H226 3.41 µM | HT-29 7.33 µM | OVCAR-5 11.6 µM | UACC-257 16.5 µM | SK-MEL-28 10.4 µM | EKVX 1.28 µM | M14 12.1 µM | RPMI-8226 15.7 µM | SW-620 12.5 µM | NCI/ADR-RES 13.9 µM | UACC-62 13.9 µM | HCT-116 13.2 µM | OVCAR-8 16.7 µM | UO-31 4.46 µM | SF-268 10.9 µM | HOP-62 8.41 µM
14.6 µM: HCT-15

[O-][S+]1c2ccccc2SCSc2ccccc21
inactive: HT-29 > 100 µM | COLO 205 > 100 µM | OVCAR-5 > 100 µM | M14 > 100 µM | RPMI-8226 18.2 µM | NCI/ADR-RES > 100 µM | SF-539 > 100 µM | UACC-62 > 100 µM | MDA-MB-231 > 100 µM | HCT-116 > 100 µM | OVCAR-8 > 100 µM | UO-31 > 100 µM | SF-268 > 100 µM | HOP-62 > 100 µM
> 100 µM: HCT-15

Cc1ccc(C2=[N+]([O-])c3ccccc3C2=O)cc1
16.5 µM: HCT-15
inactive: NCI-H226 46.7 µM | HT-29 26.3 µM | COLO 205 28.9 µM | OVCAR-5 52.6 µM | UACC-257 16.5 µM | SK-MEL-28 15.8 µM | EKVX 24.7 µM | M14 21.7 µM | RPMI-8226 29.4 µM | SW-620 36.4 µM | SF-539 30.9 µM | UACC-62 17.5 µM | HCT-116 23.6 µM | OVCAR-8 17.3 µM | UO-31 > 56.1 µM | SF-268 35.1 µM | HOP-62 > 100 µM

Cc1ccc(NC(=O)/C(CC2Nc3c(ccc4c3C(=O)c3ccccc3C4=O)NC2O)=N/NC(C)(C)C)cc1 (stereo not given)
inactive: HT-29 16.4 µM | COLO 205 21.5 µM | OVCAR-5 26.5 µM | UACC-257 16.1 µM | SK-MEL-28 12.1 µM | EKVX 10 µM | M14 18.7 µM | SW-620 9.68 µM | NCI/ADR-RES 1.67 µM | SF-539 7.59 µM | UACC-62 11.9 µM | MDA-MB-231 3.42 µM | HCT-116 12.5 µM | OVCAR-8 6.52 µM | UO-31 3.7 µM | SF-268 10.4 µM | HOP-62 13.8 µM
5.79 µM: HCT-15

CN(CC(=O)O)c1ncc2c(n1)-c1ccccc1OC2
> 100 µM: HCT-15
inactive: HT-29 > 100 µM | COLO 205 > 100 µM | OVCAR-5 > 100 µM | UACC-257 > 100 µM | SK-MEL-28 > 100 µM | EKVX > 100 µM | M14 > 100 µM | RPMI-8226 > 100 µM | SW-620 > 100 µM | NCI/ADR-RES > 100 µM | SF-539 > 100 µM | UACC-62 > 100 µM | MDA-MB-231 > 100 µM | HCT-116 > 100 µM | OVCAR-8 > 100 µM | UO-31 > 100 µM | SF-268 > 100 µM

CC1=C(C(=O)Nc2cc(=O)n(C)c(=O)n2C)C(c2ccc([N+](=O)[O-])cc2)C(C(=O)Nc2cc(=O)n(C)c(=O)n2C)=C(C)N1
inactive: NCI-H226 49.3 µM | HT-29 > 100 µM | COLO 205 > 100 µM | OVCAR-5 > 100 µM | UACC-257 86.7 µM | SK-MEL-28 > 100 µM | EKVX > 100 µM | M14 > 100 µM | RPMI-8226 59.6 µM | SW-620 > 100 µM | SF-539 > 100 µM | UACC-62 26.5 µM | HCT-116 74.3 µM | OVCAR-8 68.1 µM | UO-31 21.8 µM | SF-268 > 100 µM | HOP-62 18.1 µM
> 100 µM: HCT-15

COc1cc2c(c(OC(C)=O)c1OC(C)=O)-c1ccc(SC)c(=O)cc1C(NC(C)=O)CC2 (stereo not given)
active: COLO 205 0.998 µM | UACC-257 1.07 µM | SW-620 0.951 µM | SF-539 0.494 µM
31.7 µM: HCT-15
inactive: NCI-H226 6.87 µM | HT-29 2.04 µM | OVCAR-5 > 50.1 µM | SK-MEL-28 3.24 µM | EKVX 32.1 µM | M14 2.96 µM | RPMI-8226 1.36 µM | UACC-62 1.12 µM | HCT-116 1.36 µM | OVCAR-8 3.66 µM | UO-31 89.1 µM | SF-268 1.38 µM | HOP-62 7.59 µM

CCn1cc(C(=O)O)c(=O)c2cc(F)c(N3CCNCC3)nc21 [ENOXACIN]
> 100 µM: HCT-15
inactive: NCI-H226 > 100 µM | HT-29 > 100 µM | COLO 205 > 100 µM | OVCAR-5 > 100 µM | UACC-257 > 100 µM | SK-MEL-28 > 100 µM | EKVX > 100 µM | M14 > 100 µM | RPMI-8226 > 100 µM | SW-620 > 100 µM | SF-539 > 100 µM | UACC-62 > 100 µM | HCT-116 65.6 µM | OVCAR-8 > 100 µM | UO-31 > 100 µM | SF-268 > 100 µM | HOP-62 > 100 µM

O=C(/C=C/c1ccccc1)c1ccccn1
11.8 µM and 18.5 µM: HCT-15
inactive: NCI-H226 16.6 µM and 26.7 µM | HT-29 20.7 µM and 15.5 µM | COLO 205 18.6 µM and 22.2 µM | UACC-257 13.2 µM and 16.4 µM | SK-MEL-28 17 µM and 26.2 µM | EKVX 22 µM and 18.1 µM | M14 14.5 µM | SW-620 18.7 µM and 29.8 µM | NCI/ADR-RES 22.2 µM and 28.4 µM | SF-539 17.8 µM | UACC-62 16.6 µM and 20.6 µM | OVCAR-8 17.6 µM and 25.1 µM | UO-31 17.3 µM and 20.6 µM

O=C1c2ccccc2-c2c1c(-c1ccccc1)c1n2C2(C(=O)c3ccccc3C2=O)C2C(=O)N(c3ccccc3)C(=O)C12 (stereo not given)
16.4 µM: HCT-15
inactive: NCI-H226 19.3 µM | HT-29 17.7 µM | COLO 205 18.5 µM | OVCAR-5 17.4 µM | UACC-257 30.6 µM | SK-MEL-28 28.9 µM | EKVX 24 µM | M14 34.1 µM | SW-620 31.5 µM | NCI/ADR-RES 74.6 µM | SF-539 15.4 µM | UACC-62 21.6 µM | HCT-116 17.9 µM | OVCAR-8 32.2 µM | UO-31 28.4 µM | SF-268 21.1 µM | HOP-62 26.3 µM

Cc1cn(C(CO)OC(CO)CN(O)C2C3CC4CC(C3)CC2C4)c(=O)[nH]c1=O (stereo not given)
inactive: NCI-H226 > 100 µM | HT-29 > 100 µM | COLO 205 > 100 µM | OVCAR-5 > 100 µM | UACC-257 > 100 µM | SK-MEL-28 > 100 µM | EKVX > 100 µM | M14 > 100 µM | RPMI-8226 > 100 µM | SW-620 > 100 µM | SF-539 > 100 µM | UACC-62 > 100 µM | MDA-MB-231 > 100 µM | HCT-116 > 100 µM | OVCAR-8 > 100 µM | UO-31 > 100 µM | SF-268 > 100 µM | HOP-62 > 100 µM
> 100 µM: HCT-15

COC1CN(C)/C(=N\c2cccc3ccccc23)S1 (stereo not given)
inactive: HT-29 > 10 µM | COLO 205 > 10 µM | OVCAR-5 > 10 µM | UACC-257 > 10 µM | SK-MEL-28 > 10 µM | M14 > 10 µM | RPMI-8226 > 10 µM | SW-620 > 10 µM | NCI/ADR-RES > 10 µM | SF-539 > 10 µM | UACC-62 > 10 µM | MDA-MB-231 > 10 µM | HCT-116 > 10 µM | OVCAR-8 > 10 µM | SF-268 > 10 µM | HOP-62 > 10 µM
> 10 µM: HCT-15
